The numbers were not newly measured in patent publication US20220087839A1, “Arterial Drug Eluting Device to Treat Diabetes With Targeted Delivery of Medication” (Becton, Dickinson and Company, priority 2020, published 2022), which cites them from elsewhere.

In series [1] the test system is glucagon. The conditions noted are these: intravenous infusion of 25 micrograms per hour, Type 1 diabetic.
For series [2] the following is noted: in vivo.
The subject of series [3] is beta and alpha cells of the pancreas.
The subject of series [4] is glucagon. Conditions: intravenous infusion of 500 micrograms per hour, Type 1 diabetics.
The subject of series [5] is human alpha-cells. Conditions: in vitro.

Take `CC[C@H](C)[C@H](NC(=O)[C@@H]1CCCN1C(=O)CNC(=O)[C@H](Cc1ccccc1)NC(=O)[C@H](CC(N)=O)NC(=O)[C@H](CC(N)=O)NC(=O)[C@H](CO)NC(=O)[C@H](CO)NC(=O)[C@H](Cc1c[nH]cn1)NC(=O)[C@@H](NC(=O)[C@H](CC(C)C)NC(=O)[C@H](Cc1ccccc1)NC(=O)[C@H](CC(N)=O)NC(=O)[C@H](C)NC(=O)[C@H](CC(C)C)NC(=O)[C@H](CCCNC(=N)N)NC(=O)[C@H](CCC(N)=O)NC(=O)[C@@H](NC(=O)[C@H](C)NC(=O)[C@@H]1CSSC[C@H](NC(=O)[C@@H](N)CCCCN)C(=O)N[C@@H](CC(N)=O)C(=O)N[C@@H]([C@@H](C)O)C(=O)N[C@@H](C)C(=O)N[C@@H]([C@@H](C)O)C(=O)N1)[C@@H](C)O)C(C)C)C(=O)N[C@@H](CC(C)C)C(=O)N1CCC[C@H]1C(=O)N1CCC[C@H]1C(=O)N[C@H](C(=O)N[C@@H](CC(N)=O)C(=O)N[C@H](C(=O)NCC(=O)N[C@@H](CO)C(=O)N[C@@H](CC(N)=O)C(=O)N[C@H](C(=O)N[C@@H](Cc1ccc(O)cc1)C(N)=O)[C@@H](C)O)C(C)C)[C@@H](C)O` [Pramlintide]: in series [1], the “suppression of glucagon spike from a standardized meal” value is “could suppress a glucagon spike from a standardized meal”. somatostatin: the half life in series [2] is 3 min. Also, the “effect on insulin and glucagon release” value in series [3] was “inhibit both insulin and glucagon release”. Moreover, the “suppression of glucagon spikes” value in series [4] is recorded as “suppressed glucagon spikes”. For leptin, in series [5], the “concentration that could suppress functional response to glucose” value is 0.625 nmol/L.
